From patent US9403846B2, “Carbocyclic- and heterocyclic-substituted hexahydropyrano[3,4-d][1,3]thiazin-2-amine compounds” (Pfizer Inc., priority 2012, dated 2016)
Where a name gives a salt, the structure may show the parent alone.

What was measured:
[1] = tested on: sAPPβ levels in H4 human neuroglioma cells over-expressing the wild-type human APP695; assay: Whole Cell Assay (In Vitro sAPPb Assay); assay type: cell-based; conditions: 18 hours, geometric mean of 2-3 determinations (Ex. 2: ≧6 determinations)
[2] = biological target: BACE1 enzyme (Homo sapiens (Human), UniProt P56817); assay: BACE1 Cell-Free Assay (fluorescence polarization);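 on all read-outs here: Affinity-purified soluble BACE1 from transfected CHO-K1 cells cleaving a biotinylated, Oregon Green-labelled synthetic APP peptide, 3 h at 37 °C, cleavage followed by fluorescence polarization change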; assay type: biochemical; conditions: for IC50: geometric mean of 2-3 determinations (Ex. 2: ≧6 determinations); for biological activity (in words, see Table 3): statement used to assign absolute stereochemistry, refers to Table 3
[3] = biological target: BACE2 enzyme (Homo sapiens (Human), UniProt Q9Y5Z0); assay: BACE2 Assay (cell-free, fluorescence polarization); assay type: biochemical; conditions: single determination
Description: This assay measures the inhibition of the BACE2 enzyme as it cleaves a non-native peptide. A synthetic substrate that can be cleaved by BACE2 having N-terminal biotin and made fluorescent by the covalent attachment of Oregon Green at the Cys residue is used to assay BACE2 activity in the presence or absence of the inhibitory compounds. The substrate is Biotin-[…]-C(Oregon green)-KK-OH. The BACE2 enzyme is available from Enzo Life Sciences (Cat # BML-SE550). Compounds are incubated in a ½ log dose response curve from a top concentration of 100 μM with BACE2 enzyme and the biotinylated fluorescent peptide in 384-well black plates (Thermo Scientific #4318). BACE2 is at a final concentration of 2.5 nM with a final concentration of peptide substrate of 150 nM in a reaction volume of 30 μL assay buffer (100 mM sodium acetate, pH 4.5 (brought to pH with acetic acid), and 0.001% Tween-20). Plates are covered and incubated for 3 hours at 37° C. The reaction is stopped with the addition of 30 μL of 1.5 μM Streptavidin (Pierce, #21125). After a 10 minute incubation at room temperature, plates are read on a PerkinElmer EnVision for fluorescence polarization (Ex485 nm/Em530 nm). The activity of the beta-secretase enzyme is detected by changes in the fluorescence polarization that occur when the substrate is cleaved by the enzyme.

Sequence of BACE2 enzyme (Q9Y5Z0 63-518): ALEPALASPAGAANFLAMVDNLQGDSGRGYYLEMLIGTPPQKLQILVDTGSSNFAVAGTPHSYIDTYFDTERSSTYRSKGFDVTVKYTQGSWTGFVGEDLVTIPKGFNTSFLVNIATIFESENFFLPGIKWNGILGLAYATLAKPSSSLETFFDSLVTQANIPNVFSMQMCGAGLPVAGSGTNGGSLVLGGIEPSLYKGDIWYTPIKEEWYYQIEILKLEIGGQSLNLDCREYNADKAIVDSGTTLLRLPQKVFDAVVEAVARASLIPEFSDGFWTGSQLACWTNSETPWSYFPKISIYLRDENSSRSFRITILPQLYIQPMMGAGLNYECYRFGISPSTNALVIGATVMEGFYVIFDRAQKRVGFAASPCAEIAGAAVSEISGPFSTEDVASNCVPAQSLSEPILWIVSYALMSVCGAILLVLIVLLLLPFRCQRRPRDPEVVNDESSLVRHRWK
Sequence of BACE1 enzyme (P56817 46-457): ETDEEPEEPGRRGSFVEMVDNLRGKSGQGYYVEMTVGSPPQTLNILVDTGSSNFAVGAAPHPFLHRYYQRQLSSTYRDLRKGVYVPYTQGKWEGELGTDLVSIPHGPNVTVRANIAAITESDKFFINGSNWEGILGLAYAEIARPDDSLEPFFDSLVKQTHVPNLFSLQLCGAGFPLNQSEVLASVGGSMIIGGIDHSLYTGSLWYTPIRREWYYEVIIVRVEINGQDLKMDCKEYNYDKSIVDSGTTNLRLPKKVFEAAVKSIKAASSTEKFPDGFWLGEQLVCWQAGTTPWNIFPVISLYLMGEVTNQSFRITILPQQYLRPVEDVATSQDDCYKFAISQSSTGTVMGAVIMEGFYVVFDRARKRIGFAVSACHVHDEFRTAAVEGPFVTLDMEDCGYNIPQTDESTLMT

Row | IC50 ([1]; Homo sapiens) | IC50 [2] | IC50 [3] | biological activity (in words, see Table 3) [2] | IC50 [1] | Structure (SMILES)
1 | 61.2 nM | 235 nM | – | – | – | NC1=N[C@@]2(c3ccc(F)cc3F)CO[C@@H](CC3CC3)C[C@H]2CS1 [Example 8, (4aR,6S,8aS)-6-(Cyclopropylmethyl)-8a-(2,4-difluorophenyl)-4,4a,5,6,8,8a-hexahydropyrano[3,4-d][1,3]thiazin-2-amine]
2 | 72.1 nM | 715 nM | – | – | – | Cc1ccc([C@]23CO[C@@H](C4CC4)C[C@H]2CSC(N)=N3)c(F)c1 [Example 15, (4aR,6R,8aS)-6-Cyclopropyl-8a-(2-fluoro-4-methylphenyl)-4,4a,5,6,8,8a-hexahydropyrano[3,4-d][1,3]thiazin-2-amine]
3 | 38.9 nM | 337 nM | 2490 nM | – | – | C[C@H]1SC(N)=N[C@@]2(c3ccc(F)cc3F)CO[C@@H](C3CC3)C[C@@H]12 [Example 3, (4R,4aR,6R,8aS)-6-Cyclopropyl-8a-(2,4-difluorophenyl)-4-methyl-4,4a,5,6,8,8a-hexahydropyrano[3,4-d][1,3]thiazin-2-amine, trifluoroacetate salt]
4 | > 30000 nM | > 100000 nM | – | inactive | – | Cl.NC1=N[C@]2(c3ccc(F)cc3F)CO[C@H](C3CC3)C[C@@H]2[C@H](CF)S1 [Example C48, (4R,4aS,6S,8aR)-6-cyclopropyl-8a-(2,4-difluorophenyl)-4-(fluoromethyl)-4,4a,5,6,8,8a-hexahydropyrano[3,4-d][1,3]thiazin-2-amine, hydrochloride salt]
5 | – | – | – | essentially inactive | 17300 nM | NC1=N[C@]2(c3ccc(F)cc3F)CO[C@H](C3CC3)C[C@@H]2CS1 [Example C23, (4aS,6S,8aR)-6-cyclopropyl-8a-(2,4-difluorophenyl)-4,4a,5,6,8,8a-hexahydropyrano[3,4-d][1,3]thiazin-2-amine]
6 | 39.7 nM | 302 nM | – | – | – | NC1=N[C@@]2(c3ccc(F)cc3F)CO[C@@H]([C@@H]3CCCO3)C[C@H]2CS1 [Example 21, (4aR,6R,8aS)-8a-(2,4-Difluorophenyl)-6-[(2S)-tetrahydrofuran-2-yl]-4,4a,5,6,8,8a-hexahydropyrano[3,4-d][1,3]thiazin-2-amine]
7 | 7400 nM | > 86000 nM | – | essentially inactive | – | NC1=N[C@]2(c3ccc(F)cc3F)CO[C@H](CC3CC3)C[C@@H]2CS1 [Example C74, (4aS,6R,8aR)-6-(cyclopropylmethyl)-8a-(2,4-difluorophenyl)-4,4a,5,6,8,8a-hexahydropyrano[3,4-d][1,3]thiazin-2-amine]
8 | 39.1 nM | 346 nM | – | – | – | NC1=N[C@@]2(c3ccc(F)cc3F)CO[C@@H](C3CC3)C[C@H]2[C@@H](CF)S1 [Example 6, (4S,4aR,6R,8aS)-6-Cyclopropyl-8a-(2,4-difluorophenyl)-4-(fluoromethyl)-4,4a,5,6,8,8a-hexahydropyrano[3,4-d][1,3]thiazin-2-amine, hydrochloride salt]
9 | 116 nM | 1410 nM | – | – | – | COC[C@H]1SC(N)=N[C@@]2(c3ccc(F)cc3F)CO[C@@H](C3CC3)C[C@@H]12 (racemic) [Example 5, rel-(4S,4aR,6R,8aS)-6-Cyclopropyl-8a-(2,4-difluorophenyl)-4-(methoxymethyl)-4,4a,5,6,8,8a-hexahydropyrano[3,4-d][1,3]thiazin-2-amine, hydrochloride salt]
10 | 85.1 nM | 1420 nM | – | – | – | NC1=N[C@@]2(c3cc(F)ccc3F)CO[C@@H](C3CC3)C[C@H]2CS1 [Example 11, (4aR,6R,8aS)-6-Cyclopropyl-8a-(2,5-difluorophenyl)-4,4a,5,6,8,8a-hexahydropyrano[3,4-d][1,3]thiazin-2-amine]
11 | 16.2 nM | 116 nM | – | – | – | C[C@@H]1C[C@H]1[C@H]1C[C@H]2CSC(N)=N[C@@]2(c2ccc(F)cc2F)CO1 [Example 20, (4aR,6R,8aS)-8a-(2,4-Difluorophenyl)-6-[(1R,2R)-2-methylcyclopropyl]-4,4a,5,6,8,8a-hexahydropyrano[3,4-d][1,3]thiazin-2-amine]
12 | 137 nM | 1310 nM | – | – | – | NC1=N[C@@]2(c3ccc(F)cc3F)CO[C@@H](C3CCO3)C[C@H]2CS1 (stereo partly drawn) [Example 4, (4aR,6R,8aS)-8a-(2,4-Difluorophenyl)-6-(oxetan-2-yl)-4,4a,5,6,8,8a-hexahydropyrano[3,4-d][1,3]thiazin-2-amine]

Continued, molecule first:

Row | Structure (SMILES) | IC50 ([1]; Homo sapiens) | IC50 [2] | IC50 [3] | biological activity (in words, see Table 3) [2] | IC50 [1]
13 | NC1=N[C@@]2(c3c(F)cccc3F)CO[C@@H](C3CC3)C[C@H]2CS1 [Example 12, (4aR,6R,8aS)-6-Cyclopropyl-8a-(2,6-difluorophenyl)-4,4a,5,6,8,8a-hexahydropyrano[3,4-d][1,3]thiazin-2-amine] | 34.6 nM | 395 nM | – | – | –
14 | NC1=N[C@]2(c3ccccc3F)CO[C@H](C3CC3)C[C@@H]2CS1 [Example 17, (4aS,6S,8aR)-6-Cyclopropyl-8a-(2-fluorophenyl)-4,4a,5,6,8,8a-hexahydropyrano[3,4-d][1,3]thiazin-2-amine] | 1560 nM | 25700 nM | – | – | –
15 | NC1=N[C@@]2(c3ccc(F)cc3F)CO[C@@H](C3CCCO3)C[C@H]2CS1 (stereo partly drawn) [Example 1, (4aR,6R,8aS)-8a-(2,4-Difluorophenyl)-6-(tetrahydrofuran-2-yl)-4,4a,5,6,8,8a-hexahydropyrano[3,4-d][1,3]thiazin-2-amine, trifluoroacetate salt] | 73.8 nM | 447 nM | 1290 nM | – | –
16 | NC1=N[C@@]2(c3ccccc3F)CO[C@@H](C3CC3)C[C@H]2CS1 [Example 13, (4aR,6R,8aS)-6-Cyclopropyl-8a-(2-fluorophenyl)-4,4a,5,6,8,8a-hexahydropyrano[3,4-d][1,3]thiazin-2-amine] | 40 nM | 422 nM | – | – | –
17 | NC1=N[C@@]2(c3ccc(F)cc3)CO[C@@H](C3CC3)C[C@H]2CS1 [Example 10, (4aR,6R,8aS)-6-Cyclopropyl-8a-(4-fluorophenyl)-4,4a,5,6,8,8a-hexahydropyrano[3,4-d][1,3]thiazin-2-amine] | 89.7 nM | 572 nM | – | – | –
18 | CC1(C)CCC([C@H]2C[C@H]3CSC(N)=N[C@@]3(c3ccc(F)cc3F)CO2)O1 (stereo partly drawn) [Example 19, (4aR,6R,8aS)-8a-(2,4-Difluorophenyl)-6-(5,5-dimethyltetrahydrofuran-2-yl)-4,4a,5,6,8,8a-hexahydropyrano[3,4-d][1,3]thiazin-2-amine] | 17.9 nM | 184 nM | – | – | –
19 | CC1([C@H]2C[C@H]3CSC(N)=N[C@@]3(c3ccc(F)cc3F)CO2)CC1 [Example 7, (4aR,6R,8aS)-8a-(2,4-Difluorophenyl)-6-(1-methylcyclopropyl)-4,4a,5,6,8,8a-hexahydropyrano[3,4-d][1,3]thiazin-2-amine] | 142 nM | 484 nM | – | – | –
20 | Cc1ccc([C@]23CO[C@@H](C4CC4)C[C@H]2CSC(N)=N3)cc1F [Example 16, (4aR,6R,8aS)-6-Cyclopropyl-8a-(3-fluoro-4-methylphenyl)-4,4a,5,6,8,8a-hexahydropyrano[3,4-d][1,3]thiazin-2-amine] | 92.3 nM | 897 nM | – | – | –
21 | NC1=N[C@@]2(c3ccc(F)cc3F)CO[C@@H](C3CC3)C[C@H]2CS1 [Example 2, (4aR,6R,8aS)-6-Cyclopropyl-8a-(2,4-difluorophenyl)-4,4a,5,6,8,8a-hexahydropyrano[3,4-d][1,3]thiazin-2-amine] | 24.2 nM | – | 2260 nM | – | –
22 | NC1=N[C@@]2(c3ccccc3)CO[C@@H](C3CC3)C[C@H]2CS1 [Example 14, (4aR,6R,8aS)-6-Cyclopropyl-8a-phenyl-4,4a,5,6,8,8a-hexahydropyrano[3,4-d][1,3]thiazin-2-amine] | 142 nM | 1280 nM | – | – | –
23 | NC1=N[C@@]2(c3c(F)cc(F)cc3F)CO[C@@H](C3CC3)C[C@H]2CS1 [Example 9, (4aR,6R,8aS)-6-Cyclopropyl-8a-(2,4,6-trifluorophenyl)-4,4a,5,6,8,8a-hexahydropyrano[3,4-d][1,3]thiazin-2-amine] | 57.2 nM | 1050 nM | – | – | –
24 | NC1=N[C@]2(c3ccc(F)cc3)CO[C@H](C3CC3)C[C@@H]2CS1 [Example 18, (4aS,6S,8aR)-6-Cyclopropyl-8a-(4-fluorophenyl)-4,4a,5,6,8,8a-hexahydropyrano[3,4-d][1,3]thiazin-2-amine] | 2220 nM | 15600 nM | – | – | –
25 | CC1([C@@H]2C[C@@H]3CSC(N)=N[C@]3(c3ccc(F)cc3F)CO2)CC1 [Example C61, (4aS,6S,8aR)-8a-(2,4-difluorophenyl)-6-(1-methylcyclopropyl)-4,4a,5,6,8,8a-hexahydropyrano[3,4-d][1,3]thiazin-2-amine] | 2890 nM | 37000 nM | – | essentially inactive | –
